Measurements taken from PMC12021657, “Rapid traversal of vast chemical space using machine learning-guided docking screens” (Nature Computational Science, 2025).

Assays:
Human A2AR = biological target: T1, Human A2AR (Homo sapiens, UniProt P29274); test: Human A2AR competition radioligand binding ([3H]-ZM241385, HeLa-A2A membranes); settings: for A2AR radioligand displacement at 20 µM (%): 20 µM compound, mean ± SEM of two technical replicates
T1 construct: expressed in transfected cells; host or cells: HeLa-A2A cell line (membranes prepared in house, lot A003/14-04-2019)
T1 sequence (P29274 whole entry): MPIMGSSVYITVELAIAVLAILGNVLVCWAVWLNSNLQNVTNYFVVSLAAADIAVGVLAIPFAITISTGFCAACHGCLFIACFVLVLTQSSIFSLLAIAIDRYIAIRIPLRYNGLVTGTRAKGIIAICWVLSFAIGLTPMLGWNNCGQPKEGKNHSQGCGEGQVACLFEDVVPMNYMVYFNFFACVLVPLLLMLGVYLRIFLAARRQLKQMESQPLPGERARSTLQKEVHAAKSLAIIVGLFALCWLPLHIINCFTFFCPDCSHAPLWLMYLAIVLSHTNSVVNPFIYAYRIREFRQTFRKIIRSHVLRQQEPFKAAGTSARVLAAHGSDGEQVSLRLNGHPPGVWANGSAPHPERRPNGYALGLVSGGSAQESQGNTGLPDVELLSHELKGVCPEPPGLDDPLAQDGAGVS
Procedure: (§1) Screening compounds (Supplementary Tables 10 and 12) were purchased from Enamine (compound purity >90%, which was confirmed by liquid chromatography−mass spectrometry and ^1H NMR spectroscopy for identified ligands; Supplementary Figs. 19–30). Human D2R competition binding experiments were carried out in polypropylene 96-well plates. Each well contained 20 µg of membranes from a CHO-D2R #S20 cell line (protein concentration of 4,322 µg ml^−1), 1.5 nM [^3H]-spiperone (54.3 Ci mmol^−1, 1 mCi ml^−1, PerkinElmer NET1187250UC) and the compound studied. Non-specific binding was determined in the presence of 10 µM sulpiride (Sigma Aldrich S8010). The reaction mixture (250 µl per well) was incubated at 25 °C for 120 min, after which 200 µl was transferred to a GF/C 96-well plate (Millipore) pretreated with 0.5% PEI and treated with binding buffer (50 mM Tris-HCl, 1 mM EDTA, 5 mM MgCl2, 5 mM KCl, 120 mM NaCl, pH 7.4). The reaction mixture was filtered and washed 4 times with 250 µl wash buffer (50 mM Tris-HCl, 0.9% NaCl, pH 7.4) before the addition of 30 μl Universol. The final measurement was performed in a microplate beta scintillation counter (Microbeta Trilux, PerkinElmer). Human A2AR competition binding experiments were carried out in a multiscreen GF/C 96-well plate (Millipore) pretreated with binding buffer (Tris-HCl 50 mM, EDTA 1 mM, MgCl2 10 mM, 2 U ml^−1 adenosine deaminase, pH 7.4). Each well was incubated with 5 μg of membranes from the HeLa-A2A cell line and prepared in our laboratory (lot A003/14-04-2019, protein concentration 2,058 μg ml^−1), 1 nM [^3H]-ZM241385 (50 Ci mmol^−1, 1 mCi ml^−1, ARC-ITISA 0884), and the compounds studied and standards. Non-specific binding was determined in the presence of NECA 50 μM (Sigma E2387). The reaction mixture (total volume of 200 μl per well) was incubated at 25 °C for 30 min, then filtered and washed 4 times with 250 μl wash buffer (Tris-HCl 50 mM, EDTA 1 mM, MgCl2 10 mM, pH 7.4), and measured in a microplate beta scintillation counter (Microbeta Trilux, PerkinElmer). Unless stated otherwise, three independent experiments were carried out to calculate Ki values.

Human D2R = biological target: T2, Human D2R (Homo sapiens, UniProt P14416); test: Human D2R competition radioligand binding ([3H]-spiperone, CHO-D2R #S20 membranes); settings: 10 µM compound, mean ± SEM of two technical replicates; for inhibition at 10 µM: 2 h, read-out: D2R radioligand displacement at 10 µM (%)
T2 construct: expressed in transfected cells
T2 sequence (P14416 whole entry): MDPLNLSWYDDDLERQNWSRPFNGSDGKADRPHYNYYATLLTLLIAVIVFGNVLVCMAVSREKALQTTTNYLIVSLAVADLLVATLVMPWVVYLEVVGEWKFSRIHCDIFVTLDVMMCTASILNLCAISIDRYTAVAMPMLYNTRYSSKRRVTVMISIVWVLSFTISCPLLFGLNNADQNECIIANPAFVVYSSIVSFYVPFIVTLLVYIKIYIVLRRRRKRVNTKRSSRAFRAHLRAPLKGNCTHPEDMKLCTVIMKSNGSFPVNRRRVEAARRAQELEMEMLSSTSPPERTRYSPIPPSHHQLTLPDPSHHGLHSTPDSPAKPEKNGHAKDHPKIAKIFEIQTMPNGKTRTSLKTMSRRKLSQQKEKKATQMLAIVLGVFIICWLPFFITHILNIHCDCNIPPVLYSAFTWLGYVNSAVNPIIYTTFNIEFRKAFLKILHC
Procedure: as §1

| SMILES | Ki (Human A2AR; xlsx sheet A2AR_Displacement, read-out: Ki (A2AR) printed in column Displacement at 20 uM (%)) | A2AR radioligand displacement at 20 µM (%) (Human A2AR) | D2R radioligand displacement at 10 µM (%) (Human D2R) | inhibition at 10 µM (Human D2R) |
| --- | --- | --- | --- | --- |
| CCOC(=O)c1cccc2[nH]c(NC(=O)C(N)Cc3ccco3)nc12 (centres unmarked) [Compound 6, CCOC(=O)c1cccc2c1nc([nH]2)NC(=O)C(Cc3ccco3)N] | 1300 nM |  |  |  |
| O=C(Nc1ncccn1)C1CCN(CC(O)C2CCC2)CC1 (centres unmarked) [Z3292775568, c1cnc(nc1)NC(=O)C2CCN(CC2)CC(C3CCC3)O] |  | 1±2% |  |  |
| Cc1ccc(NCCNC(=O)C2Cc3c(C)cccc3CN2)nc1 (centres unmarked) [Z8854579335, Cc1ccc(nc1)NCCNC(=O)C2Cc3c(cccc3CN2)C] |  | 6±2% |  |  |
| NC(=NCCc1ccc(F)cc1)Nc1ncccn1 [Z8854579370, c1cnc(nc1)NC(=NCCc2ccc(cc2)F)N] |  | 11±1% |  |  |
| Brc1ccn2c(CN[C@H]3C[C@H](Oc4ccccc4)C3)cnc2c1 [Z8185092056, c1ccc(cc1)O[C@H]2C[C@@H](C2)NCc3n4c(nc3)cc(cc4)Br] |  |  | 2 ± 2% | 2 ± 2% |
| OC(Cc1cccc(Cl)c1)CN1CCC=C(c2ccco2)C1 (centres unmarked) [Z2102774071, c1cc(cc(c1)Cl)CC(CN2CCC=C(C2)c3ccco3)O] |  |  | 10 ± 3% | 10 ± 3% |
| COc1cc(CNC(C)Cc2c[nH]c3ncccc23)ncc1C (centres unmarked) [Z7326877935, Cc1cnc(cc1OC)CNC(C)Cc2c[nH]c3c2cccn3] |  | 13±2% |  |  |
| c1ccc([C@H]2C[C@H](NCc3ccccc3-n3cccn3)C2)cc1 [Z1973963178, c1ccc(cc1)[C@H]2C[C@@H](C2)NCc3c(cccc3)n4nccc4] |  |  | 1 ± 2% | 1 ± 2% |
| COc1ccc(Cl)c(CCN=C(N)Nc2ncccn2)c1 [Z8854579336, COc1ccc(c(c1)CCN=C(N)Nc2ncccn2)Cl] |  | 39±1% |  |  |
| Cc1ccc(C[C@H](N)CC(=O)Nc2nc3c(C)cccc3[nH]2)cc1 [Z8854579350, Cc1ccc(cc1)C[C@@H](CC(=O)Nc2[nH]c3cccc(c3n2)C)N] |  | 30±3% |  |  |
| CCc1ccc(CNCCc2c[nH]c3c(OC)cccc23)nc1 [Z3765568162, CCc1ccc(nc1)CNCCc2c[nH]c3c2cccc3OC] |  | 16±4% |  |  |
| Clc1cnn(CCN2CCC(OCc3ccc(Br)cc3)CC2)c1 [Z8185092665, c1cc(ccc1COC2CCN(CC2)CCn3cc(cn3)Cl)Br] |  |  | 4 ± 1% | 4 ± 1% |
| N[C@H]1c2ccccc2C[C@H]1C(=O)Nc1ccn(-c2ccccn2)n1 [Z8854579342, c1ccc2c(c1)C[C@H]([C@H]2N)C(=O)Nc3ccn(n3)c4ccccn4] |  | 30±2% |  |  |
| O=C(CN1CCC1Cc1ccccc1)Nc1ncc[nH]1 (centres unmarked) [Z6743522026, c1ccc(cc1)CC2CCN2CC(=O)Nc3[nH]ccn3] |  | 5±3% |  |  |
| CC(C)(C)c1c[nH]c(CN2CCC(Cc3nccs3)C2)n1 (centres unmarked) [Z8185092674, CC(C)(C)c1c[nH]c(n1)CN2CCC(C2)Cc3nccs3] |  |  | 2 ± 3% | 2 ± 3% |
| Clc1cccc(CCN2CC(c3ncnc4ccccc34)C2)c1 [Z3806926084, c1ccc2c(c1)c(ncn2)C3CN(C3)CCc4cccc(c4)Cl] |  |  | 4 ± 1% | 4 ± 1% |
| Cc1[nH]cnc1CN1CCC(Oc2cc(F)cc(F)c2)C1 (centres unmarked) [Z3516846214, Cc1c(nc[nH]1)CN2CCC(C2)Oc3cc(cc(c3)F)F] |  |  | 5 ± 1% | 5 ± 1% |
| NC(=NCCc1ccccc1OC(F)(F)F)Nc1ncccn1 [Z8854579353, c1ccc(c(c1)CCN=C(N)Nc2ncccn2)OC(F)(F)F] |  | 22±5% |  |  |
| NC(=NCCc1ccc(F)cc1F)Nc1ncccn1 [Z8854579368, c1cnc(nc1)NC(=NCCc2ccc(cc2F)F)N] |  | 14±1% |  |  |
| c1ccc(CC2CN(Cc3cc4ncccc4s3)C2)cc1 [Z8185092667, c1ccc(cc1)CC2CN(C2)Cc3cc4c(s3)cccn4] |  |  | 12 ± 3% | 12 ± 3% |

| SMILES | Ki (Human A2AR; xlsx sheet A2AR_Displacement, read-out: Ki (A2AR) printed in column Displacement at 20 uM (%)) | A2AR radioligand displacement at 20 µM (%) (Human A2AR) | D2R radioligand displacement at 10 µM (%) (Human D2R) | inhibition at 10 µM (Human D2R) |
| --- | --- | --- | --- | --- |
| Cc1ccc(C(O)CN2CCC3(Cc4ccccc4C3)C2)c(C)c1 (centres unmarked) [Z8185092353, Cc1ccc(c(c1)C)C(CN2CCC3(C2)Cc4ccccc4C3)O] |  |  | 4 ± 3% | 4 ± 3% |
| c1ccc(NC2CCN(Cc3cccc4ncnn34)C2)cc1 (centres unmarked) [Z3310096494, c1ccc(cc1)NC2CCN(C2)Cc3cccc4n3ncn4] |  |  | 1 ± 2% | 1 ± 2% |
| Fc1cccc2nc(CNCc3ccccc3-n3cccn3)sc12 [Z8185092672, c1ccc(c(c1)CNCc2nc3cccc(c3s2)F)n4cccn4] |  |  | 2 ± 1% | 2 ± 1% |
| Clc1ccc(C2CN=C(NCc3cc(OC4CCC4)ccn3)N2)cc1 (centres unmarked) [Z8185092666, c1cc(ccc1C2CN=C(N2)NCc3cc(ccn3)OC4CCC4)Cl] |  |  | 24 ± 1% | 24 ± 1% |
| Cc1ccccc1-n1cc(CNC2COc3ccccc3C2)cn1 (centres unmarked) [Z8185092078, Cc1ccccc1n2cc(cn2)CNC3Cc4ccccc4OC3] |  |  | 3 ± 1% | 3 ± 1% |
| O[C@@H](CN1CCc2cc(Br)sc2C1)c1ccccc1F [Z8185092668, c1ccc(c(c1)[C@H](CN2CCc3cc(sc3C2)Br)O)F] |  |  | 3 ± 1% | 3 ± 1% |
| Cc1cc(CC(O)CN2CCc3c(ncn3C3CCC3)C2)ccc1F (centres unmarked) [Z3516919089, Cc1cc(ccc1F)CC(CN2CCc3c(ncn3C4CCC4)C2)O] |  |  | 1 ± 1% | 1 ± 1% |
| c1ccc(C2CC(NCc3cc4ncccc4[nH]3)C2)cc1 (centres unmarked) [Z3532611366, c1ccc(cc1)C2CC(C2)NCc3cc4c([nH]3)cccn4] |  |  | 24 ± 1% | 24 ± 1% |
| c1ccc(C2CN=C(NCCc3cn4c(n3)CCCC4)N2)cc1 (centres unmarked) [Z8185092671, c1ccc(cc1)C2CN=C(N2)NCCc3cn4c(n3)CCCC4] |  |  | 5 ± 2% | 5 ± 2% |
| OC(CN1CCC(n2ncc3ccccc32)CC1)c1cccc(Cl)n1 (centres unmarked) [Z3651347041, c1ccc2c(c1)cnn2C3CCN(CC3)CC(c4cccc(n4)Cl)O] |  |  | 28 ± 1% | 28 ± 1% |
| Cn1cc(-c2ccc(CN3CC[C@@H](Oc4ccccc4)C3)s2)cn1 [Z2629646171, Cn1cc(cn1)c2ccc(s2)CN3CC[C@H](C3)Oc4ccccc4] |  |  | 7 ± 1% | 7 ± 1% |
| Fc1ccc([C@H]2C[C@H](NCc3cnn(-c4ccccc4)n3)C2)cc1 [Z2213086620, c1ccc(cc1)n2nc(cn2)CN[C@H]3C[C@@H](C3)c4ccc(cc4)F] |  |  | 27 ± 1% | 27 ± 1% |
| FC(F)(F)c1ccnc(N2CCN(C3CCC3)CC2)c1 [Z1348398263, c1cnc(cc1C(F)(F)F)N2CCN(CC2)C3CCC3] |  |  | 5 ± 3% | 5 ± 3% |
| c1csc(CCN2CCC(Oc3ccc(C4CC4)cn3)C2)c1 (centres unmarked) [Z2694200197, c1cc(sc1)CCN2CCC(C2)Oc3ccc(cn3)C4CC4] |  |  | 17 ± 4% | 17 ± 4% |
| Cc1cccc(CN[C@H]2C[C@H](Oc3ccccc3)C2)c1F [Z8185092308, Cc1c(c(ccc1)CN[C@H]2C[C@@H](C2)Oc3ccccc3)F] |  |  | 6 ± 2% | 6 ± 2% |
| Fc1ccc(O[C@H]2CCN(Cc3cnc4ccc(Br)cn34)C2)cc1 [Z8185092492, c1cc(ccc1O[C@H]2CCN(C2)Cc3cnc4n3cc(cc4)Br)F] |  |  | 5 ± 3% | 5 ± 3% |
| Clc1nc2c(cc1CN1CC[C@@H](Oc3ccccc3)C1)COCC2 [Z3529190238, c1ccc(cc1)O[C@@H]2CCN(C2)Cc3cc4c(nc3Cl)CCOC4] |  |  | 1 ± 1% | 1 ± 1% |
| Cc1ccc(C2CC(NCCn3ncc4ccccc43)C2)cc1 (centres unmarked) [Z8185092514, Cc1ccc(cc1)C2CC(C2)NCCn3c4ccccc4cn3] |  |  | 23 ± 1% | 23 ± 1% |
| Cc1ccc(CCN2C[C@@H]3CN(C(=O)c4cn5c(n4)CC(C)CC5)C[C@@H]3C2)cc1 (some centres unmarked) [Z8185092530, Cc1ccc(cc1)CCN2C[C@@H]3CN(C[C@@H]3C2)C(=O)c4cn5c(n4)CC(CC5)C] |  |  | 1 ± 2% | 1 ± 2% |
| c1cnc(CCN2CCC(c3cn[nH]c3)CC2)cn1 [Z2833584438, c1cnc(cn1)CCN2CCC(CC2)c3c[nH]nc3] |  |  | 1 ± 1% | 1 ± 1% |
